The values below come from PMC11239830, “Synthetic macrolides overcoming MLSBK-resistant pathogens” (Cell Discovery, 2024).

≈ marks a conversion by molar mass, not a printed value. Where two headings read alike, the source gives them in different places.

Assay in all cases: MIC, broth microdilution
In general terms: In broth dilution the organism is exposed to a series of concentrations in liquid medium.

The test system of one assay is S. pneumoniae. It is filed as cell-based, Streptococcus pneumoniae. The protocol:
(§1) MICs were determined by the microdilution method according to the Clinical and Laboratory Standards Institute guidelines. […] Finally, the 96-well plates were incubated at 37 °C for 16–20 h to observe and record the results. […] The assay for MICs was replicated at least three times.

A further assay concerns H. influenzae. The class given is cell-based, Haemophilus influenzae. The method, then: as §1
The test system of another assay is S. aureus. The class given is cell-based, Staphylococcus aureus. The method, then: as §1
A further assay deals with S. pyogenes. The class given is cell-based, Streptococcus pyogenes. The note with it: S. pyogenes 12-206, c-ermTR. The protocol: as §1
[1] abbreviates: Streptococcus pneumoniae, ATCC49619, S. pneumoniae ATCC49619, Ery-S, read-out: MIC.
Where [2] appears, read: Streptococcus pneumoniae, S. pneumoniae 07P390, c-ermB, read-out: MIC.
[3] abbreviates: Streptococcus pneumoniae, S. pneumoniae PU09, mef, read-out: MIC.
The mark [4] stands for this setting: Haemophilus influenzae, ATCC49247, H. influenzae ATCC49247, Azi-S, read-out: MIC.
[5] abbreviates: Staphylococcus aureus, S. aureus 15B196, c-ermB, read-out: MIC.
Setting [6] is: Staphylococcus aureus, S. aureus PU32, i-ermA, read-out: MIC.
[7] abbreviates: Streptococcus pyogenes, read-out: MIC.

For the molecule `CCC1OC(=O)C(C)C(OC(=O)NCCCCCC#Cc2ccc3c(c2)c(=O)c(C(=O)O)cn3C2CC2)C(C)C(OC2OC(C)CC(N(C)C)C2O)C(C)(OC)CC(C)C(=NOC)C(C)C2OC(=O)OC12C` (centres unmarked) [57a], the MIC in the assay with S. pneumoniae (setting [1]) is 0.25 µg/mL (≈ 0.248 µM); in the assay with S. pneumoniae (setting [2]), 64 µg/mL (≈ 63.4 µM); in the assay on S. pneumoniae (setting [3]) it was 1 µg/mL (≈ 0.991 µM); with H. influenzae (setting [4]) it was > 256 µg/mL; in the assay on S. aureus (setting [5]), 128 µg/mL (≈ 127 µM); in the assay with S. aureus (setting [6]) it was 16 µg/mL (≈ 15.9 µM). For the same molecule, the MIC in the assay with S. pyogenes (setting [7]) was 32 µg/mL (≈ 31.7 µM).

`CCC1OC(=O)C(C)C(OC(=O)NCCCCCC#Cc2ccc3c(=O)c(C(=O)O)cn(C4CC4)c3c2)C(C)C(OC2OC(C)CC(N(C)C)C2O)C(C)(OC)CC(C)C(=NOC)C(C)C2OC(=O)OC12C` (centres unmarked) [57c]: the MIC with S. pneumoniae (setting [1]) is ≤ 0.008 µg/mL; in the assay with S. pneumoniae (setting [2]), 0.5 µg/mL (≈ 0.495 µM); in the assay on S. pneumoniae (setting [3]), 0.06 µg/mL (≈ 0.0595 µM); in the assay with H. influenzae (setting [4]), 8 µg/mL (≈ 7.93 µM); with S. aureus (setting [5]), 16 µg/mL (≈ 15.9 µM); in the assay with S. aureus (setting [6]), 4 µg/mL (≈ 3.96 µM). In the assay with S. pyogenes (setting [7]), the MIC came out at 1 µg/mL (≈ 0.991 µM).

As to `CC[C@H]1OC(=O)[C@H](C)[C@@H](OC(=O)NCCCCCC#Cc2ccc3c(=O)c(C(=O)NO)cn(C4CC4)c3c2)[C@H](C)[C@@H](O[C@@H]2O[C@H](C)C[C@H](N(C)C)[C@H]2O)[C@](C)(OC)C[C@@H](C)C(=NOC)[C@H](C)[C@H]2OC(=O)O[C@@]21C` [57e], the MIC was 2 µg/mL (≈ 1.95 µM) with S. pneumoniae (S. pneumoniae 07P390, c-ermB); 0.016 µg/mL (≈ 0.0156 µM) in the assay with S. pneumoniae (S. pneumoniae ATCC49619, Ery-S); 0.5 µg/mL (≈ 0.488 µM) against S. pneumoniae (S. pneumoniae PU09, mef); 32 µg/mL (≈ 31.2 µM) against H. influenzae (H. influenzae ATCC49247, Azi-S); 128 µg/mL (≈ 125 µM) in the assay on S. aureus (S. aureus 15B196, c-ermB); 16 µg/mL (≈ 15.6 µM) against S. aureus (S. aureus PU32, i-ermA). The MIC in the assay with S. pyogenes came out at 128 µg/mL (≈ 125 µM).

As for `CC[C@H]1OC(=O)[C@H](C)[C@@H](OC(=O)NCCCCCCC#Cc2ccc3c(=O)c(C(=O)O)cn(C4CC4)c3c2)[C@H](C)[C@@H](O[C@@H]2O[C@H](C)C[C@H](N(C)C)[C@H]2O)[C@](C)(OC)C[C@@H](C)C(=NOC)[C@H](C)[C@H]2OC(=O)O[C@@]21C` [58c], the MIC in the assay on S. pneumoniae (S. pneumoniae 07P390, c-ermB) was determined as 1 µg/mL (≈ 0.977 µM); against S. pneumoniae (S. pneumoniae ATCC49619, Ery-S) it was 0.25 µg/mL (≈ 0.244 µM); in the assay with S. pneumoniae (S. pneumoniae PU09, mef), 0.25 µg/mL (≈ 0.244 µM); against H. influenzae (H. influenzae ATCC49247, Azi-S) it was 32 µg/mL (≈ 31.3 µM); in the assay with S. aureus (S. aureus 15B196, c-ermB), 64 µg/mL (≈ 62.5 µM); with S. aureus (S. aureus PU32, i-ermA), 8 µg/mL (≈ 7.82 µM). The molecule also yielded an MIC against S. pyogenes of 2 µg/mL (≈ 1.95 µM).

Regarding `CC[C@H]1OC(=O)[C@H](C)[C@@H](OC(=O)NCCCCCc2ccc3c(c2)c(=O)c(C(N)=O)cn3C2CC2)[C@H](C)[C@@H](O[C@@H]2O[C@H](C)C[C@H](N(C)C)[C@H]2O)[C@](C)(OC)C[C@@H](C)C(=NOC)[C@H](C)[C@H]2OC(=O)O[C@@]21C` [59b], the MIC in the assay with S. pneumoniae (S. pneumoniae 07P390, c-ermB) was 64 µg/mL (≈ 65 µM); in the assay on S. pneumoniae (S. pneumoniae ATCC49619, Ery-S), 0.25 µg/mL (≈ 0.254 µM); with S. pneumoniae (S. pneumoniae PU09, mef), 1 µg/mL (≈ 1.02 µM); in the assay on H. influenzae (H. influenzae ATCC49247, Azi-S), > 256 µg/mL; with S. aureus (S. aureus 15B196, c-ermB), > 256 µg/mL; against S. aureus (S. aureus PU32, i-ermA), 128 µg/mL (≈ 130 µM). In the assay on S. pyogenes, the MIC was determined as 64 µg/mL (≈ 65 µM).

For `CC[C@H]1OC(=O)[C@H](C)[C@@H](OC(=O)NCCCCCCc2ccc3c(c2)c(=O)c(C(N)=O)cn3C2CC2)[C@H](C)[C@@H](O[C@@H]2O[C@H](C)C[C@H](N(C)C)[C@H]2O)[C@](C)(OC)C[C@@H](C)C(=NOC)[C@H](C)[C@H]2OC(=O)O[C@@]21C` [60b], the MIC is 32 µg/mL (≈ 32.1 µM) against S. pneumoniae (S. pneumoniae 07P390, c-ermB); 0.25 µg/mL (≈ 0.25 µM) against S. pneumoniae (S. pneumoniae ATCC49619, Ery-S); 1 µg/mL (≈ 1 µM) against S. pneumoniae (S. pneumoniae PU09, mef); > 256 µg/mL with H. influenzae (H. influenzae ATCC49247, Azi-S); > 256 µg/mL against S. aureus (S. aureus 15B196, c-ermB); 128 µg/mL (≈ 128 µM) in the assay on S. aureus (S. aureus PU32, i-ermA). For the same molecule, the MIC against S. pyogenes is 32 µg/mL (≈ 32.1 µM).

As to `CCC1OC(=O)C(C)C(OC(=O)NCCCCCCCc2ccc3c(c2)c(=O)c(C(=O)O)cn3C2CC2)C(C)C(OC2OC(C)CC(N(C)C)C2O)C(C)(OC)CC(C)C(=NOC)C(C)C2OC(=O)OC12C` (centres unmarked) [61a], the MIC in the assay with S. pneumoniae (setting [1]) is 0.12 µg/mL (≈ 0.118 µM); with S. pneumoniae (setting [2]), 64 µg/mL (≈ 63.2 µM); with S. pneumoniae (setting [3]), 0.5 µg/mL (≈ 0.493 µM); in the assay with H. influenzae (setting [4]), > 256 µg/mL; with S. aureus (setting [5]), 256 µg/mL (≈ 253 µM); with S. aureus (setting [6]) it was 8 µg/mL (≈ 7.9 µM). For the same molecule, the MIC in the assay on S. pyogenes (setting [7]) was 32 µg/mL (≈ 31.6 µM).

For the molecule `CC[C@H]1OC(=O)[C@H](C)[C@@H](OC(=O)NCCCCCCCc2ccc3c(c2)c(=O)c(C(N)=O)cn3C2CC2)[C@H](C)[C@@H](O[C@@H]2O[C@H](C)C[C@H](N(C)C)[C@H]2O)[C@](C)(OC)C[C@@H](C)C(=NOC)[C@H](C)[C@H]2OC(=O)O[C@@]21C` [61b], the MIC is 16 µg/mL (≈ 15.8 µM) against S. pneumoniae (S. pneumoniae 07P390, c-ermB); 1 µg/mL (≈ 0.988 µM) against S. pneumoniae (S. pneumoniae ATCC49619, Ery-S); 1 µg/mL (≈ 0.988 µM) with S. pneumoniae (S. pneumoniae PU09, mef); > 256 µg/mL against H. influenzae (H. influenzae ATCC49247, Azi-S); > 256 µg/mL against S. aureus (S. aureus 15B196, c-ermB); 64 µg/mL (≈ 63.2 µM) with S. aureus (S. aureus PU32, i-ermA). Besides, the MIC in the assay on S. pyogenes turned out to be 16 µg/mL (≈ 15.8 µM).
